Assay results from US7851637B2, “Compounds and methods for inhibiting the interaction of BCL proteins with binding partners” (Infinity Pharmaceuticals, Inc., priority 2004, dated 2010).
Like-named read-outs stand apart in the source and are kept apart here.

Assays:
[1] = system: Human Pancreatic Cancer Cell Line Panc1; test: Cell death assay (propidium iodide/Hoechst) in Panc1 cells with or without camptothecin; format: cell-based; settings: 72 hours, % cell death by propidium iodide/Hoechst
Protocol: When RL-cells are exposed to isoxazolidine compounds of the present invention, the inhibitors show a dose-dependent cell-killing in the Alamar blue cytoxicity assay with IC50 values of from about 100 μM to about 1 μM (See Examples). When Panc1 cells are exposed to the isoxazolidine compounds of the present invention in combination with camptothecin, the inhibitors show a synergistic dose-dependent cell killing in the propidium iodide exclusion cell survival assay with IC50 values of from about 100 μM to about 1 μM (See Examples).
• 1) Compounds were serially diluted in DMSO from a 9 mM stock to a final concentration of 0.004 mM in a 96 well plate. • 2) Assay plates were prepared by diluting compounds 310 fold into 150 ul of medium containing 10,000 cells/well, with or without 3 uM Camptothecin, resulting in a final DMSO concentration of 0.3% and a compound concentration range from 29 uM to […] for each compound. • 3) Assay plates were incubated at 37 C, 5% CO2 for 72 hours. • 4) After 72 hours, propidium iodide and Hoechst dye were added to each well according to manufacturer's instruction. • 5) Plates were imaged on a fluorescence microscope at wavelengths Ex560/Em650 (Propidium iodide) and Ex360/Em465 (Hoechst) • 6) MetaMorph imaging software was used to determine % cell death by dividing the number of propidium iodide stained cells (dead cells) by the number of Hoechst stained cells (all cells), multipled by 100, in each field.
Panc1 invitro cellular data is presented below for various compounds of the invention.

[2] = target: Bcl-2 (Homo sapiens, UniProt P10415); test: Bcl-2 binding affinity analysis (fluorescence polarization binding assay)
How it was run: (§1)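 FP readout; quantitative in vitro binding format; same method applied to both anti-apoptotic proteins.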

[3] = target: Bcl-xL (Homo sapiens, UniProt Q07817); test: Bcl-xL binding affinity analysis (fluorescence polarization binding assay); parameters: scale not given here
How it was run: as §1

[4] = Homo sapiens, PANC-1, without camptothecin, read-out: Panc1 − Cpt IC50
[5] = with 3 uM Camptothecin, read-out: Panc1 + Cpt IC50

Bcl-xL, sequence (Q07817 whole entry): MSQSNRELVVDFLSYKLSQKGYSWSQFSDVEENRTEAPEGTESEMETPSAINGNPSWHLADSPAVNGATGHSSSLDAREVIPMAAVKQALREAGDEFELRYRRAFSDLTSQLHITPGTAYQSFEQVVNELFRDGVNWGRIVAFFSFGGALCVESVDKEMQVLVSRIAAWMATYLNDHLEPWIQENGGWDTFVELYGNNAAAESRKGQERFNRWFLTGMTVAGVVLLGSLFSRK
Bcl-2, sequence (P10415 whole entry): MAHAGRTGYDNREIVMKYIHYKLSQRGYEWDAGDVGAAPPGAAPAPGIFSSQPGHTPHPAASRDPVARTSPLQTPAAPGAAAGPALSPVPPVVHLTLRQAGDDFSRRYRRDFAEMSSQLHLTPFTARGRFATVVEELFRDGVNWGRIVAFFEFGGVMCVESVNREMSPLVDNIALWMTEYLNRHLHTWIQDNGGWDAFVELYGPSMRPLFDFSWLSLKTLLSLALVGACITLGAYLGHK

| Compound | IC50 [1, 4] [nM] | IC50 [1, 5] [nM] | Ki [2] [nM] | Bcl-XL binding affinity Ki [3] |
| --- | --- | --- | --- | --- |
| CNC(=O)c1ccccc1-c1cccc(CN2O[C@@H](CO)[C@@H]([C@H](C)O)[C@H]2C(=O)N[C@H]2C[C@H]3C[C@@H]([C@@H]2C)C3(C)C)c1 [Compound 89] | 1800 to 2500 | 1300 to 1800 | – | – |
| C[C@@H]1[C@@H](NC(=O)[C@@H]2[C@H]([C@H](C)O)[C@H](CO)ON2Cc2cccc(C#CC3(NC(=O)C4CCN(C)CC4)CCCCC3)c2)CC2C[C@@H]1C2(C)C [Compound 90] | > 2500 | 1300 to 1800 | – | – |
| COC(=O)CCNC(=O)c1cccc(-c2cccc(CN3O[C@@H](CO)[C@@H]([C@H](C)O)[C@H]3C(=O)N[C@H]3C[C@H]4C[C@@H]([C@@H]3C)C4(C)C)c2)c1 [Compound 149] | > 2500 | 1800 to 2500 | < 800 | ♯ |
| COc1ccc(COc2c(CN3O[C@@H](CO)[C@@H]([C@H](C)O)[C@H]3C(=O)N[C@H]3C[C@H]4C[C@@H]([C@@H]3C)C4(C)C)cccc2-c2ccc(C(=O)N(C)C)cc2)cc1 [Compound 166] | > 2500 | < 1300 | < 800 | ♯ |
| CC(C)CC(CN(C)C)N(Cc1cccc(CN2OC(CO)C(C(C)O)C2C(=O)NC2CC3CC(C2C)C3(C)C)c1)CC1CCCCC1 (centres unmarked) [Compound 303] | > 2500 | > 2500 | < 800 | ♯ |
| COc1cccc(F)c1CN(Cc1cccc(CN2OC(CO)C(C(C)O)C2C(=O)NC2CC3CC(C2C)C3(C)C)c1)C(CC(C)C)CN(C)C (centres unmarked) [Compound 305] | 1300 to 1800 | < 1300 | < 800 | ♯ |
| CC(C)C[C@@H](CN(C)C)N(Cc1cccc(CN2O[C@@H](CO)C([C@H](C)O)[C@H]2C(=O)N[C@H]2C[C@H]3C[C@@H]([C@@H]2C)C3(C)C)c1)Cc1c(O)cccc1F (some centres unmarked) [Compound 306] | > 2500 | 1300 to 1800 | < 800 | ♯ |
| CC(C)CC(CN(C)C)N(Cc1cccc(CN2OC(CO)C(C(C)O)C2C(=O)NC2CC3CC(C2C)C3(C)C)c1)Cc1c(F)cccc1Cl (centres unmarked) [Compound 307] | > 2500 | > 2500 | < 800 | ♯ |
| CC(C)CC(CN(C)C)N(Cc1cccc(O)c1)Cc1cccc(CN2OC(CO)C(C(C)O)C2C(=O)NC2CC3CC(C2C)C3(C)C)c1 (centres unmarked) [Compound 310] | > 2500 | 1800 to 2500 | < 800 | ♯ |
| CC(C)C[C@@H](CN(C)C)N(Cc1cccc(CN2O[C@@H](CO)C([C@H](C)O)[C@H]2C(=O)N[C@H]2C[C@H]3C[C@@H]([C@@H]2C)C3(C)C)c1)Cc1c(Cl)cccc1Cl (some centres unmarked) [Compound 317] | > 2500 | > 2500 | < 800 | ♯ |
| CC(C)CC(CN(C)C)N(Cc1cccc(CN2OC(CO)C(C(C)O)C2C(=O)NC2CC3CC(C2C)C3(C)C)c1)Cc1ccccc1I (centres unmarked) [Compound 318] | > 2500 | > 2500 | < 800 | ♯ |
| COc1cccc(CN(Cc2cccc(CN3OC(CO)C(C(C)O)C3C(=O)NC3CC4CC(C3C)C4(C)C)c2)C(CC(C)C)CN(C)C)c1 (centres unmarked) [Compound 319] | 1800 to 2500 | 1300 to 1800 | < 800 | ♯ |
| CC(O)C1C(CO)ON(Cc2cccc(CN(CCN(C)C)Cc3ccsc3)c2)C1C(=O)NC1CC2CC(C1C)C2(C)C (centres unmarked) [Compound 347] | > 2500 | > 2500 | < 800 | ♯ |
| CC(O)C1C(CO)ON(Cc2cccc(CN(CCN(C)C)Cc3cccs3)c2)C1C(=O)NC1CC2CC(C1C)C2(C)C (centres unmarked) [Compound 358] | > 2500 | > 2500 | < 800 | ♯ |
| CC(O)C1C(CO)ON(Cc2cccc(CN(CCN(C)C)Cc3ccc(F)cc3)c2)C1C(=O)NC1CC2CC(C1C)C2(C)C (centres unmarked) [Compound 376] | 1800 to 2500 | 1300 to 1800 | < 800 | ♯ |
| COc1ccc(CN(CCN(C)C)Cc2cccc(CN3OC(CO)C(C(C)O)C3C(=O)NC3CC4CC(C3C)C4(C)C)c2)cc1 (centres unmarked) [Compound 387] | > 2500 | > 2500 | < 800 | ♯ |
| C[C@@H]1[C@@H](NC(=O)[C@@H]2C([C@H](C)O)[C@H](CO)ON2Cc2cccc(CN(CCN(C)C)Cc3ccncc3)c2)C[C@H]2C[C@@H]1C2(C)C (some centres unmarked) [Compound 389] | 1800 to 2500 | 1300 to 1800 | < 800 | ♯ |

| Compound | IC50 [1, 4] [nM] | IC50 [1, 5] [nM] | Ki [2] [nM] | Bcl-XL binding affinity Ki [3] |
| --- | --- | --- | --- | --- |
| CCC(C)C(CN(C)C)N(Cc1cccc(CN2OC(CO)C(C(C)O)C2C(=O)NC2CC3CC(C2C)C3(C)C)c1)Cc1ccccc1Br (centres unmarked) [Compound 416] | > 2500 | > 2500 | < 800 | ♯ |
| C[C@@H]1[C@@H](NC(=O)[C@@H]2C([C@H](C)O)[C@H](CO)ON2Cc2cccc(CN(Cc3ccccc3Br)[C@H](CN(C)C)C(C)(C)C)c2)C[C@H]2C[C@@H]1C2(C)C (some centres unmarked) [Compound 422] | > 2500 | 1300 to 1800 | < 800 | ♯ |
| CC(O)C1C(CO)ON(Cc2cccc(CN(Cc3ccccc3)C(Cc3ccccc3)CN(C)C)c2)C1C(=O)NC1CC2CC(C1C)C2(C)C (centres unmarked) [Compound 423] | > 2500 | > 2500 | < 800 | ♯ |
| CCN1CCCC1CN(Cc1ccccc1)Cc1cccc(CN2OC(CO)C(C(C)O)C2C(=O)NC2CC3CC(C2C)C3(C)C)c1 (centres unmarked) [Compound 426] | > 2500 | > 2500 | < 800 | ♯ |
| CC(O)C1C(CO)ON(Cc2cccc(CN(CCN3CCCCCC3)Cc3ccccc3)c2)C1C(=O)NC1CC2CC(C1C)C2(C)C (centres unmarked) [Compound 427] | > 2500 | > 2500 | < 800 | ♯ |
| CC(O)C1C(CO)ON(Cc2cccc(CN(CCN3CCCC3)Cc3ccccc3)c2)C1C(=O)NC1CC2CC(C1C)C2(C)C (centres unmarked) [Compound 430] | > 2500 | > 2500 | < 800 | ♯ |
| CC(C)C[C@@H](CN(C)C)N(Cc1ccccc1)Cc1cccc(CN2O[C@@H](CO)[C@@H]([C@H](C)O)[C@H]2C(=O)NCCCNC(=O)OC(C)(C)C)c1 [Compound 543] | – | – | 6000 to 50000 | ♯ |
| C[C@@H]1[C@@H](NC(=O)[C@@H]2[C@H]([C@H](C)O)[C@H](CO)ON2CCCCN(CCCc2ccccc2)CCN(C)C)C[C@H]2C[C@@H]1C2(C)C [Compound 545] | – | – | 800 to 6000 | ♯ |
| C[C@@H]1[C@@H](NC(=O)[C@@H]2[C@H]([C@H](C)O)[C@H](CO)ON2CCCCN(CCc2ccccc2)CCN(C)C)C[C@H]2C[C@@H]1C2(C)C [Compound 546] | – | – | 800 to 6000 | ♯ |
| C[C@@H]1[C@@H](NC(=O)[C@@H]2[C@H]([C@H](C)O)[C@H](CO)ON2CCCCN(CCN(C)C)Cc2ccccc2)C[C@H]2C[C@@H]1C2(C)C [Compound 547] | – | – | 800 to 6000 | ♯ |
| C[C@@H]1[C@@H](NC(=O)[C@@H]2[C@H]([C@H](C)O)[C@H](CO)ON2CCCCN(CCN(C)C)Cc2ccccc2Cl)C[C@H]2C[C@@H]1C2(C)C [Compound 549] | – | – | 800 to 6000 | ♯ |
| C[C@@H]1[C@@H](NC(=O)[C@@H]2[C@H]([C@H](C)O)[C@H](CO)ON2CCCCN(CCN(C)C)Cc2ccccc2F)C[C@H]2C[C@@H]1C2(C)C [Compound 550] | – | – | 800 to 6000 | ♯ |
| C[C@@H]1[C@@H](NC(=O)[C@@H]2[C@H]([C@H](C)O)[C@H](CO)ON2CCCCN(CCN(C)C)Cc2ccccc2-c2ccccc2)C[C@H]2C[C@@H]1C2(C)C [Compound 551] | – | – | < 800 | ♯ |
| CC(C)C[C@@H](CN(C)C)NCc1cccc(CN2O[C@@H](CO)C([C@H](C)O)[C@H]2C(=O)N[C@H]2C[C@H]3C[C@@H]([C@@H]2C)C3(C)C)c1 (some centres unmarked) [Compound 552] | – | – | 800 to 6000 | ♯ |
| C[C@@H]1[C@@H](NC(=O)[C@@H]2[C@H]([C@H](C)O)[C@H](CO)ON2CCCCN(CCN(C)C)CC2CCCCC2)C[C@H]2C[C@@H]1C2(C)C [Compound 553] | – | – | 800 to 6000 | ♯ |
| C[C@@H]1[C@@H](NC(=O)[C@@H]2[C@H]([C@H](C)O)[C@H](CO)ON2Cc2cccc(NCCCN(C)C)c2)C[C@H]2C[C@@H]1C2(C)C [Compound 582] | – | – | < 800 | ♯ |
| C[C@@H]1[C@@H](NC(=O)[C@@H]2[C@H]([C@H](C)O)[C@H](CO)ON2Cc2cccc(N(CCCN(C)C)CCCN(C)C)c2)C[C@H]2C[C@@H]1C2(C)C [Compound 583] | – | – | < 800 | ♯ |
